Measurements taken from ChEMBL document CHEMBL1201862, “PubChem BioAssay data set” (2004).
Active and inactive are the calls of the source.

Tests used:
[1] = target: T1, Adenosylmethionine-8-amino-7-oxononanoate aminotransferase (Mycobacterium tuberculosis, UniProt P9WQ81); experiment: Mycobacterium tuberculosis BioA enzyme inhibitor Measured in Biochemical System Using Plate Reader - 2163-02_Inhibitor_Dose_CherryPick_Activity.; format: functional, Mycobacterium tuberculosis UT205
T1 sequence (P9WQ81 whole entry): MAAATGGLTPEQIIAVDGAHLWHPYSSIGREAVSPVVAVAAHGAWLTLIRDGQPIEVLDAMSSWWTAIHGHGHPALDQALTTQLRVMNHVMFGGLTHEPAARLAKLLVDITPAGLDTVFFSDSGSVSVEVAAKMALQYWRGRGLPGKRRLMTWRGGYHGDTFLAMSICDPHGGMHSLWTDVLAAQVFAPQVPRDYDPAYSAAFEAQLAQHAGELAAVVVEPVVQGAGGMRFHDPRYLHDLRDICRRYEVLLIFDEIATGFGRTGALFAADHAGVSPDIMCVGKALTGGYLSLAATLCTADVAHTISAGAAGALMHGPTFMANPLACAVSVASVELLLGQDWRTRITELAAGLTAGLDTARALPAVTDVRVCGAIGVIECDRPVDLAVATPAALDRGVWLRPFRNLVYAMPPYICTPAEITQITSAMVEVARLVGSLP

[2] = cells; format: functional, cell-based
[3] = cells; format: functional, cell-based; remark: listed apart in the source
[4] = cells
[5] = target: T2, Oxysterols receptor LXR-beta (Homo sapiens, UniProt P55055); format: functional, cell-based;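 also: Cell-based luminescence dose-response assay of agonist activity at LXR, run as a confirmatory counterscreen to a daf-12 agonist screen; HEK293 cells with Gal4-LXR fusion and GAL4-driven luciferase reporter; agonist potency from rising luciferase signal of a Gal4-LXR reporter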
T2 sequence (P55055 whole entry): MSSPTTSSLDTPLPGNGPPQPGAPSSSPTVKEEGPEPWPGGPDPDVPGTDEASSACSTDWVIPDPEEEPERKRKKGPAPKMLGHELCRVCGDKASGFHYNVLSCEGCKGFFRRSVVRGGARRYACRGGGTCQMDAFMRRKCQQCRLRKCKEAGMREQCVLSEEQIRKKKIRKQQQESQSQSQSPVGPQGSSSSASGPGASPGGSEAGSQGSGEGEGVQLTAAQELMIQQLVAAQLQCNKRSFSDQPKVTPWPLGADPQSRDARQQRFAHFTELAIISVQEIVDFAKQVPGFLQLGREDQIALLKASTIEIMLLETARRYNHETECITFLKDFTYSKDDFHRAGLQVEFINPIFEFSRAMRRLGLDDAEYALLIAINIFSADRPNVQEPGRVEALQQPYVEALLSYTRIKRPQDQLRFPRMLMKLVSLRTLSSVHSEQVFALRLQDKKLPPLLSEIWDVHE

[6] = cytotoxicity toward NIH3T3 fibroblasts, dose response, counter-screen, cell-based, ATP luminescence, mouse fibroblasts (AID 2010); format: functional;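 also: cells exposed to compound for about 90 hours before reading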
[7] = inhibitors of intracellular T. cruzi replication, confirmation, NIH3T3 host cells, beta-gal luminescence (AID 2044); format: functional, cell-based;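 also: intracellular parasites grown in NIH/3T3 mouse fibroblasts as host cells; luminescent beta-galactosidase reporter signal from transgenic T. cruzi replicating inside host cells; inhibitors lower the luminescence signal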
[8] = cytotoxicity in KRAS-transformed pancreatic duct cells, primary screen, cell-based, fluorescence, HTS (AID 431); format: functional; conditions: Homo sapiens;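 also: cell line used: HPDE-C7K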
[9] = microbe, parasite or virus in culture; format: functional; conditions: Mycobacterium tuberculosis
[10] = target: Induced myeloid leukemia cell differentiation protein Mcl-1 (Homo sapiens, UniProt Q07820); format: functional
Chain of Induced myeloid leukemia cell differentiation protein Mcl-1 (Q07820 whole entry): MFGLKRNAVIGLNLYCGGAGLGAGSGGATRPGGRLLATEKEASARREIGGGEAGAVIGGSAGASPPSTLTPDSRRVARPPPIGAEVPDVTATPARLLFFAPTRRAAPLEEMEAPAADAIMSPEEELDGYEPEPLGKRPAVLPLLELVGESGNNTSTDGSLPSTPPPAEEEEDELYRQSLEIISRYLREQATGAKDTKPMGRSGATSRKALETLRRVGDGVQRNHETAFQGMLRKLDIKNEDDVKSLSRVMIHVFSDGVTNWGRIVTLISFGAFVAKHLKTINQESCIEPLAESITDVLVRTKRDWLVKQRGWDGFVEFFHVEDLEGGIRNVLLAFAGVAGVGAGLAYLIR

[11] = cytotoxicity in HPDE-C7 cells, cell-based, fluorescence, HTS (AID 430); format: functional; conditions: Homo sapiens
[12] = growth suppression of beta-catenin-knockout colon cells, dose response, cell-based, HCT116, human colon tumor (AID 1045); format: functional;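 also: HCT116 colon tumor cells with beta catenin knocked out; cells exposed to compound for 60 hours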
[13] = growth suppression of PTEN-null colon cells, dose response, cell-based, HCT116 PTEN knockout (AID 1047); format: functional;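 also: HCT116 colon tumor cells with PTEN knocked out; cells exposed to compound for 60 hours before readout; potency for loss of cell viability measured by luminescence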
[14] = target: T3, Galanin receptor type 3 (Homo sapiens, UniProt O60755); experiment: Fluorescence-based cell-based primary high throughput dose response assay to identify antagonists of the Galanin Receptor 3 (GalR3).; format: functional
T3 sequence (O60755 whole entry): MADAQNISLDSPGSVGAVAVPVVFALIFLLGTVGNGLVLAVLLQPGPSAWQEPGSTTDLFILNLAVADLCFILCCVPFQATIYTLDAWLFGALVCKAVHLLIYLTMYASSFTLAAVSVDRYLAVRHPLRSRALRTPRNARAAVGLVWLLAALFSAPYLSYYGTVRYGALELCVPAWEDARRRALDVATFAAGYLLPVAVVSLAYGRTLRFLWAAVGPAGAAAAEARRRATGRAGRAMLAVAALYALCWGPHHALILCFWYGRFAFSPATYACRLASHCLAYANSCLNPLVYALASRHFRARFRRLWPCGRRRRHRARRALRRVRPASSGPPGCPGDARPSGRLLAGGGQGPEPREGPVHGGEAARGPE

[15] = cells; format: functional, cell-based; conditions: HEK-CNG
[16] = target: Nonstructural protein 1 (Influenza A virus, UniProt Q194T2); format: functional, Influenza A virus (A/California/07/2009(H1N1))
Chain of Nonstructural protein 1 (Q194T2 whole entry, the tested form may be a part): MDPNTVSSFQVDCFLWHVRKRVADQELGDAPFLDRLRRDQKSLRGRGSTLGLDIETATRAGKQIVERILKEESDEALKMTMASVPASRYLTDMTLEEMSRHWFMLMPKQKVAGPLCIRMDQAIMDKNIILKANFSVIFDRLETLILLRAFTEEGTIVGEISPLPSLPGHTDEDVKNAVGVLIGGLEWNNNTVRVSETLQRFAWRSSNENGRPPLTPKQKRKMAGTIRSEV

[17] = target: T4, Fatty acid synthase (Homo sapiens, UniProt P49327); experiment: FAS thioesterase domain inhibitors, dose response, biochemical, endpoint fluorescence intensity, uHTS hits (AID 624327); format: functional;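 also: fluorescence from hydrolysis of an O-methyl fluorescein acyl ester substrate by the enzyme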
T4 sequence (P49327 whole entry, the tested form may be a part): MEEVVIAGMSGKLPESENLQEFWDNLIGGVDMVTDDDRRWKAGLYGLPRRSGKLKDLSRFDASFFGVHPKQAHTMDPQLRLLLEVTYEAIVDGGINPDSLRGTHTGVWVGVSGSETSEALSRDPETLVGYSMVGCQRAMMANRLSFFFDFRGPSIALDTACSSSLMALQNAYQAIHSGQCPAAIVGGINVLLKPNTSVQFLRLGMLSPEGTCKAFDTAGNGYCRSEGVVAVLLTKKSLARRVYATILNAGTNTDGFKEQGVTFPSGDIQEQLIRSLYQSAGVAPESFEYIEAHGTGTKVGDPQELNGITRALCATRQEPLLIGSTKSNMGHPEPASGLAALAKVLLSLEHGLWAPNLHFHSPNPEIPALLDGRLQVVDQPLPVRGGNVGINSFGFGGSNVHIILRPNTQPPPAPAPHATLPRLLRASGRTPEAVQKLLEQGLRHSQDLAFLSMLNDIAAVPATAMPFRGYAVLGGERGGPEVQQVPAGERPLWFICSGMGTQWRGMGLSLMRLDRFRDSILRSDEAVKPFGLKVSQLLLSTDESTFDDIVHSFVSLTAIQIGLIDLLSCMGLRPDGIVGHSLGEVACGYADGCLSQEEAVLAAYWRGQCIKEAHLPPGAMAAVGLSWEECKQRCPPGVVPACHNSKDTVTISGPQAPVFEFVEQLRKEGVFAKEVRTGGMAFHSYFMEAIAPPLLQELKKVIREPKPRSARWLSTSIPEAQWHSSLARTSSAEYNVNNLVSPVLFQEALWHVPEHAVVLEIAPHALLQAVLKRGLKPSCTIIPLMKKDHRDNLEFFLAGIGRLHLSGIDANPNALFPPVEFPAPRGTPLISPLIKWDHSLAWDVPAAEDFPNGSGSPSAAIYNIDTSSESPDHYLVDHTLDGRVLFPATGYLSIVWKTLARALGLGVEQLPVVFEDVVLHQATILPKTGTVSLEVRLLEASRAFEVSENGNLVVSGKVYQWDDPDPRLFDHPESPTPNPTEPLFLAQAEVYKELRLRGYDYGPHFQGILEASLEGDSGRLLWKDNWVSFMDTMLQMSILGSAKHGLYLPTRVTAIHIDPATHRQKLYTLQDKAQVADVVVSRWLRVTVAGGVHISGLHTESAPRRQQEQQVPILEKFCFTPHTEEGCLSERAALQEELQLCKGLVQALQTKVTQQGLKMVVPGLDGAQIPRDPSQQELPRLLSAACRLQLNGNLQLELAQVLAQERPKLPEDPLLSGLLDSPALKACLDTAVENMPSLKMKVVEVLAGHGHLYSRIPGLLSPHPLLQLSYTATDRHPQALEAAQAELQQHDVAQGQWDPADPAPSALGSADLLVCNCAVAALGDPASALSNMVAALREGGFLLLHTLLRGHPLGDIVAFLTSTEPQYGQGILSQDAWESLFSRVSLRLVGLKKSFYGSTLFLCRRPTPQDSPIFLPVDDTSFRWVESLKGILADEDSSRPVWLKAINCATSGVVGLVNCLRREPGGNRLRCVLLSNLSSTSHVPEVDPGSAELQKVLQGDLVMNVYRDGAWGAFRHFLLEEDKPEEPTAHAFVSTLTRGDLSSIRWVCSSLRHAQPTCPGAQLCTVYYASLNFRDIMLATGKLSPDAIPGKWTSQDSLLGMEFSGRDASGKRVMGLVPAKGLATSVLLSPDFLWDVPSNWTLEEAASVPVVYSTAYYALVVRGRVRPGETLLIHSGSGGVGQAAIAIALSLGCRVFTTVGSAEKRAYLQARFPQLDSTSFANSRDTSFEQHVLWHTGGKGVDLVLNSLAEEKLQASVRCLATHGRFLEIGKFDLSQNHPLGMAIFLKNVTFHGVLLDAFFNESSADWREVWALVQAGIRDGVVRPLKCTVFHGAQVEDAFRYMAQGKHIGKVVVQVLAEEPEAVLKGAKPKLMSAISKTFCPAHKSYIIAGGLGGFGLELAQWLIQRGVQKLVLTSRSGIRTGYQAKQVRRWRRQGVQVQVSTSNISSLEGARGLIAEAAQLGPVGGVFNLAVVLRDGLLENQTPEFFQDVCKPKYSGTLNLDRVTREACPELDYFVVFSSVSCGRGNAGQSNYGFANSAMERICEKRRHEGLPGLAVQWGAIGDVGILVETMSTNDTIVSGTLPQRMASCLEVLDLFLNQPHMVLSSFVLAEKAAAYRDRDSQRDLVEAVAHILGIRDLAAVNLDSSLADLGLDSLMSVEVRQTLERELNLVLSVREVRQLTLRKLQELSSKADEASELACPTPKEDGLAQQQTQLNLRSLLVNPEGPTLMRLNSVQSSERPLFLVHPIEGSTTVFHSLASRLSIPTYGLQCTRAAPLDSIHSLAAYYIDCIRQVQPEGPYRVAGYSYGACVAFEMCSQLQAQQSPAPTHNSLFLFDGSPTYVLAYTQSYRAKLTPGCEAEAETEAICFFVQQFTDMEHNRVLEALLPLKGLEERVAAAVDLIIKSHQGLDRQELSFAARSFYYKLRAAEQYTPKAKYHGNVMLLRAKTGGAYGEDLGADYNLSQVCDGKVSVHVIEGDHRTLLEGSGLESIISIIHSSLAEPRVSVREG

[18] = target: T5, Heat shock factor protein 1 (Mus musculus, UniProt P38532); experiment: inhibition of MG132-induced HSE-luciferase signal, confirmation, cell-based, NIH3T3, luminescence, dose retest (AID 2382); format: functional;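 also: NIH3T3 fibroblasts with HSF1-driven luciferase reporter stressed by proteasome inhibitor MG132; luminescence from HSF1-driven luciferase expression after 8 hours of MG132 stress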
T5 sequence (P38532 whole entry): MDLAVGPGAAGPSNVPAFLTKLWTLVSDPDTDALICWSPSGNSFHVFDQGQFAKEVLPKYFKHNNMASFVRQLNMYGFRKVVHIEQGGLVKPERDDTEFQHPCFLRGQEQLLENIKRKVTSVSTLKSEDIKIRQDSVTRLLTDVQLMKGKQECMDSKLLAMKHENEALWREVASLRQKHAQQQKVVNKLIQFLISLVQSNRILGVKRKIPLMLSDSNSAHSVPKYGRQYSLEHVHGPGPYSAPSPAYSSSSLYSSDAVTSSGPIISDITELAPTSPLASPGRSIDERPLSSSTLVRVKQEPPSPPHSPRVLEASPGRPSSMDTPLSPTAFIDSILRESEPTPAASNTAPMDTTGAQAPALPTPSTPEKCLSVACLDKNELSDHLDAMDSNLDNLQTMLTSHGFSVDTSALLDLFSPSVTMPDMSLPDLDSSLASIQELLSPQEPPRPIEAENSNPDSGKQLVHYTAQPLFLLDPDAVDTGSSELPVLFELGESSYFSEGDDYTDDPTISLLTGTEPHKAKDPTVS

[19] = target: T4, Fatty acid synthase; experiment: FAS thioesterase domain inhibitors, dose response, biochemical, kinetic fluorescence intensity (AID 624326); format: functional;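 also: rate of fluorescence rise from hydrolysis of a fluorogenic O-methyl fluorescein ester substrate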
[20] = target: T6, CAAX prenyl protease 2 (Saccharomyces cerevisiae S288c, UniProt Q03530); format: biochemical
T6 sequence (Q03530 whole entry): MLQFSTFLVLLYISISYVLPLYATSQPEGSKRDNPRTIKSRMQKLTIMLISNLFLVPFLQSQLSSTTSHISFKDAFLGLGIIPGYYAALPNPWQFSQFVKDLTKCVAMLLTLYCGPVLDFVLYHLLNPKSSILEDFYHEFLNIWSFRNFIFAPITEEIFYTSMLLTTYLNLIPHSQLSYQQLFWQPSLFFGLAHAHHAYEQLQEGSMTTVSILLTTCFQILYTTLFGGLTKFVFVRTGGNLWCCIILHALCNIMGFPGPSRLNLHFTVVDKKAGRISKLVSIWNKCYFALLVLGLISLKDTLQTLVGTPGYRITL

[21] = target: T7, Replicative DNA helicase DnaB (Mycobacterium tuberculosis, UniProt P9WMR3); experiment: DnaB intein splicing inhibitors, dose response, biochemical, cell-free fluorescence (AID 449749); format: functional
T7 sequence (P9WMR3 whole entry): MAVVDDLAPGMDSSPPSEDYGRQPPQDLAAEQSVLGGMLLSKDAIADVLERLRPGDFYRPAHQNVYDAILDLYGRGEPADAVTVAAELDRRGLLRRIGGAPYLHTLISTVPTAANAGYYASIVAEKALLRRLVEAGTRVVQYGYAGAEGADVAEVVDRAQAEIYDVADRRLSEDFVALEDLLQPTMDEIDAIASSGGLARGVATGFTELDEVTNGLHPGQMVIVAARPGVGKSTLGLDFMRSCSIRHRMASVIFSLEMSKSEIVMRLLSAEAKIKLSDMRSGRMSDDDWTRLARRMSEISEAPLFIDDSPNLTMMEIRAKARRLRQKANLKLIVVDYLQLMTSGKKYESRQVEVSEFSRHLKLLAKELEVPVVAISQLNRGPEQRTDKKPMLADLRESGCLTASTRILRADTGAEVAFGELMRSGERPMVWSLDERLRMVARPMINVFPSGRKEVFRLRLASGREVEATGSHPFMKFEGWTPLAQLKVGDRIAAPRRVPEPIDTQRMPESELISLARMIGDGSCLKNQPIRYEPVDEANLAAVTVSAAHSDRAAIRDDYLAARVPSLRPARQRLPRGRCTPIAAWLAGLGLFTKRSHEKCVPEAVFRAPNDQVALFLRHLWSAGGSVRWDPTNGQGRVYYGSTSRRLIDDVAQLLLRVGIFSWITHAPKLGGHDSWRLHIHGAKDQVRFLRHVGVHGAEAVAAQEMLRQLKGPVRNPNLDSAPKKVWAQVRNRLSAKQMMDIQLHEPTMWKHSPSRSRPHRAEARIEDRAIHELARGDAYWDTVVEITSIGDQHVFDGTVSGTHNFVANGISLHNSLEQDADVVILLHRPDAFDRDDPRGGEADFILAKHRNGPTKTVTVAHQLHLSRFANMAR

[22] = NIH-3T3 fibroblast cytotoxicity, dose response, cytotoxicity control, cell-based, fluorescence, Alamar Blue, secondary assay (AID 2327); format: functional;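 also: NIH-3T3 mouse fibroblasts cultured with fluconazole at 8 µg/mL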
[23] = C. albicans growth with fluconazole, confirmation, fluorescence, retest (AID 2467); format: functional, cell-based
[24] = tested on: HEK293; experiment: inhibitors of LMP1-driven NF-kB reporter, dose response, cell-based, HEK293, luciferase, cherry-pick (AID 588343); format: functional; conditions: Homo sapiens
[25] = target: T8, Protein RecA (Mycobacterium tuberculosis, UniProt P9WHJ3); experiment: Fluorescence Cell-Free Homogeneous Dose Retest to Identify Inhibitors of RecA-Intein Splicing Activity. [Related pubchem assays (depositor defined):AID2097, AID2223, AID489010, AID492950]; format: functional
T8 sequence (P9WHJ3 whole entry): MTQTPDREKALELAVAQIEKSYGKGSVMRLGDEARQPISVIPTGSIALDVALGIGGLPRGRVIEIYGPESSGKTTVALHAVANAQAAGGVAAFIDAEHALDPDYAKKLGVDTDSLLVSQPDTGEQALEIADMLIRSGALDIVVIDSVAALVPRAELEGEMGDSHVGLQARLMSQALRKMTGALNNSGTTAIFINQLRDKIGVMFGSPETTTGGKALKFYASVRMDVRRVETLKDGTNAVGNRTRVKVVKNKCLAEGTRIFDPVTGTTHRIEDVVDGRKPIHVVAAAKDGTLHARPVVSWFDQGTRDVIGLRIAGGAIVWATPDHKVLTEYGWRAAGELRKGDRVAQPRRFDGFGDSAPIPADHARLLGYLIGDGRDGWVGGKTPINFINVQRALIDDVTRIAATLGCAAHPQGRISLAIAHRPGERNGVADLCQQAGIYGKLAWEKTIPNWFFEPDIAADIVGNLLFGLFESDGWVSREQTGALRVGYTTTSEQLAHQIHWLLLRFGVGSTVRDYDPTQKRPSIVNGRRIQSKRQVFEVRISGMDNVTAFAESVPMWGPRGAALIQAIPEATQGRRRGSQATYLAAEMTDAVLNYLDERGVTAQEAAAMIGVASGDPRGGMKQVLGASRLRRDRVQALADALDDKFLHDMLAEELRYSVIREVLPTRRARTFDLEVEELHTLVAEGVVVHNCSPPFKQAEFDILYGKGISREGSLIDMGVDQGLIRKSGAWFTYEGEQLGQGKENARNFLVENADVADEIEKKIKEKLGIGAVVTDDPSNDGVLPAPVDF

## Cc1ccc(-c2nnc(N3CCN(C(=O)CSc4nc[nH]n4)CC3)c3ccccc23)cc1
[1]
  AC50: 1.07 µM (active)

## COc1ccc(C2CC(c3cccs3)=NN2C(=O)CSc2nc(=O)n3cc(C)ccc3n2)cc1 (stereo not given)
[2]
  EC50: > 350 µM (not active)
[3]
  EC50: > 350 µM (not active)

## Cc1ccc(Cc2c(C)nc3nc(SCC(=O)NCCCN4CCCCC4)nn3c2C)cc1
[1]
  AC50: 11.1 µM (active)

## N=C(NOC(=O)c1cccs1)c1ccc(Cl)cc1
[2]
  EC50: > 350 µM (not active)
[3]
  EC50: 7.41 µM (active)

## CC(Oc1ccc2ccc(=O)oc2c1)C(=O)N1CCOCC1 (stereo not given)
[1]
  AC50: 6.85 µM (active)

## COc1ccc2oc(C(=O)Nc3ccccn3)c(C)c2c1
[4]
  EC50: > 67.5 µM (inactive)
[5]
  EC50: > 67.5 µM (inactive)

## Cc1cccc(-c2cc3c(N=O)c4ccccc4c-3[nH]n2)c1
[6]
  EC50: > 60 µM (not active)
[4]
  EC50: > 67.5 µM (inactive)
[7]
  EC50: 4.86 µM (active)
[5]
  EC50: > 67.5 µM (inactive)

## Oc1ccccc1NCC(O)Cn1ccc2ccccc21 (stereo not given)
[8]
  EC50: 13.2 µM (active)
[9]
  CC50: > 40 µM (active)
[10]
  IC50: 4.49 µM (active)
[11]
  EC50: 12.8 µM (active)

## Cc1cc2oc3c(c(=O)c2cc1C)C(c1cccc(Br)c1)N(Cc1ccco1)C3=O (stereo not given)
[12]
  EC50: 8.39 µM (active)
[8]
  EC50: > 20 µM (not active)
[13]
  EC50: 9.43 µM (active)
[11]
  EC50: > 20 µM (not active)

## COc1ccc(N=C(S)Nc2ccccn2)c(OC)c1
[2]
  EC50: > 350 µM (not active)
[3]
  EC50: 53.6 µM (active)

## O=C(NCCO)c1nsnc1NCCCl
[14]
  IC50: > 29.9 µM (inactive)
[15]
  EC50: > 29.9 µM (inactive)

## COc1cc(/C=N/NC(=O)c2cncc(Br)c2)cc([N+](=O)[O-])c1O
[16]
  IC50: 4.26 µM (active)
[17]
  IC50: 18.7 µM (active)
[18]
  EC50: 0.977 µM (active)
[19]
  IC50: 9.66 µM (active)

## O=C(c1ccccc1F)N1CC[C@@H]2[C@H](CO)Nc3ccc(Br)cc3[C@@H]21
[1]
  AC50: 1.81 µM (active)

## CCOc1ccc(-c2c(C(=O)N/N=C/c3cccs3)nnn2-c2nonc2N)cc1
[20]
  AC50: 5.5 µM (active)

## CCN(CC)c1ccc(/C=N/Nc2nc(C)cc(O)n2)c(O)c1
[2]
  EC50: 6.92 µM (active)
[21]
  AC50: > 380 µM (inactive)
[22]
  EC50: 3.13 µM (active)
[3]
  EC50: > 350 µM (not active)
[23]
  EC50: 1.09 µM (active)
[24]
  AC50: 1.75 µM (active)
[25]
  EC50: 28 µM (active)

## COc1cccc(/C=N/NC(=O)CNC(=O)C(c2ccccc2)c2ccccc2)c1O
[2]
  EC50: 30.6 µM (active)
[3]
  EC50: > 350 µM (not active)
